Laboratory results reported in article PMC9366597 (RSC Advances, 2022).
Like-named read-outs stand apart in the source and are kept apart here.

Columns and labels:
[1] = PAMPA-BBB permeation assay; conditions: for Prediction (PAMPA-BBB) (CNS+, CNS−): class from Pe; for Papp at 20 h: PAMPA, pH 7.4
COX-2 = target: T1, COX-2 (Homo sapiens, UniProt P35354); experiment: biochemical; type: biochemical
T1 sequence (P35354 18-604): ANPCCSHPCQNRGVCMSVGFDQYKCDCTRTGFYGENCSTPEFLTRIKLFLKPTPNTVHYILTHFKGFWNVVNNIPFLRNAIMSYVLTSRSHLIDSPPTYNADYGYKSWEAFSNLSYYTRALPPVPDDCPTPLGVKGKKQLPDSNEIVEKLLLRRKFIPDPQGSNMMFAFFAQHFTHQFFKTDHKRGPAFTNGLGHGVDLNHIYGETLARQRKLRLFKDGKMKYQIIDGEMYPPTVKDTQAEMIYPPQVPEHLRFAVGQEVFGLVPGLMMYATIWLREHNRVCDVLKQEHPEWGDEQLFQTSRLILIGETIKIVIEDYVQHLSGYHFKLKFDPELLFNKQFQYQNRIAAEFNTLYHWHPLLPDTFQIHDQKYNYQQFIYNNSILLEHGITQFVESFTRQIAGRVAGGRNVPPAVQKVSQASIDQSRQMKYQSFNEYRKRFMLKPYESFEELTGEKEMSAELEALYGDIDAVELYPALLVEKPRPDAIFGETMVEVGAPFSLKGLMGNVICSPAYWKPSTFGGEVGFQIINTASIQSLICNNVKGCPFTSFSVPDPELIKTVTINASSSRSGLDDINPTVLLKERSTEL

eeAChE = eeAChE (Electrophorus electricus, UniProt O42275); experiment: AChE inhibition, modified Ellman's method; type: biochemical, Electrophorous electricus; conditions: for SI (IC50 eqBChE/IC50 eeAChE): selectivity index toward eeAChE
eeAChE, sequence (O42275 24-633): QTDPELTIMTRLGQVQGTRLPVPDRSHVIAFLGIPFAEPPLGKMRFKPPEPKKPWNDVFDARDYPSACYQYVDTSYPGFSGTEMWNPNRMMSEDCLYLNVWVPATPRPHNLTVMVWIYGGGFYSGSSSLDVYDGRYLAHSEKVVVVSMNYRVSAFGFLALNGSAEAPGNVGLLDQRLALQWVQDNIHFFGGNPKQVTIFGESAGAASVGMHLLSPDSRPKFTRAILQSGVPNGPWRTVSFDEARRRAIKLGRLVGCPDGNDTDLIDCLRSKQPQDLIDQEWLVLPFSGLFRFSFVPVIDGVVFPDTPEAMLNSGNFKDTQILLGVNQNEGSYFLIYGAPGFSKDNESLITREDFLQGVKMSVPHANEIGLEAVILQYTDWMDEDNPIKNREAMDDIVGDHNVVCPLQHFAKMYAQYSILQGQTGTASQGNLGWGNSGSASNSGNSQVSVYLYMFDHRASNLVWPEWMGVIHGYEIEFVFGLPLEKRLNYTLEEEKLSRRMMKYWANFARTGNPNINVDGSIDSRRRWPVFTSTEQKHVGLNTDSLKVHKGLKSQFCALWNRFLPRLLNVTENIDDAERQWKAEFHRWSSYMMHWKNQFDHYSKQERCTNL

hMAO-B = target: T2, hMAO-B (Homo sapiens, UniProt P27338); experiment: MAO-B inhibition, fluorometric method; type: biochemical; conditions: for SI (IC50 hMAO-A/IC50 hMAO-B): selectivity index toward hMAO-B
T2 sequence (P27338 1-520): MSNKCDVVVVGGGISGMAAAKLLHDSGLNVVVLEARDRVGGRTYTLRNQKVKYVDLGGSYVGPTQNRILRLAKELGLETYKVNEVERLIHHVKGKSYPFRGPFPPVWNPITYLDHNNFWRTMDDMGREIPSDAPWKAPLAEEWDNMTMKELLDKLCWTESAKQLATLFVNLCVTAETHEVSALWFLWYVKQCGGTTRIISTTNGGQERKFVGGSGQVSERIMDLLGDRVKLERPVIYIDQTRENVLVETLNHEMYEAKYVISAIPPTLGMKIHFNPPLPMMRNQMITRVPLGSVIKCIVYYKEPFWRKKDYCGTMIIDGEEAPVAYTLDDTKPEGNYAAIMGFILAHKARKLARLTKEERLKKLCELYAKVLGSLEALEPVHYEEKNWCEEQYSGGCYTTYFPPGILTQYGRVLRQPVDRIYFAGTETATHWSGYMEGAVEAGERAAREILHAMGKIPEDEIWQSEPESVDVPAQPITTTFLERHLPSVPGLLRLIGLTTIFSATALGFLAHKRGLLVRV

5-LOX = target: T3, 5-LOX (Glycine max, UniProt P08170); experiment: 5-LOX inhibition assay; type: biochemical, soybean
T3 sequence (P08170 1-839): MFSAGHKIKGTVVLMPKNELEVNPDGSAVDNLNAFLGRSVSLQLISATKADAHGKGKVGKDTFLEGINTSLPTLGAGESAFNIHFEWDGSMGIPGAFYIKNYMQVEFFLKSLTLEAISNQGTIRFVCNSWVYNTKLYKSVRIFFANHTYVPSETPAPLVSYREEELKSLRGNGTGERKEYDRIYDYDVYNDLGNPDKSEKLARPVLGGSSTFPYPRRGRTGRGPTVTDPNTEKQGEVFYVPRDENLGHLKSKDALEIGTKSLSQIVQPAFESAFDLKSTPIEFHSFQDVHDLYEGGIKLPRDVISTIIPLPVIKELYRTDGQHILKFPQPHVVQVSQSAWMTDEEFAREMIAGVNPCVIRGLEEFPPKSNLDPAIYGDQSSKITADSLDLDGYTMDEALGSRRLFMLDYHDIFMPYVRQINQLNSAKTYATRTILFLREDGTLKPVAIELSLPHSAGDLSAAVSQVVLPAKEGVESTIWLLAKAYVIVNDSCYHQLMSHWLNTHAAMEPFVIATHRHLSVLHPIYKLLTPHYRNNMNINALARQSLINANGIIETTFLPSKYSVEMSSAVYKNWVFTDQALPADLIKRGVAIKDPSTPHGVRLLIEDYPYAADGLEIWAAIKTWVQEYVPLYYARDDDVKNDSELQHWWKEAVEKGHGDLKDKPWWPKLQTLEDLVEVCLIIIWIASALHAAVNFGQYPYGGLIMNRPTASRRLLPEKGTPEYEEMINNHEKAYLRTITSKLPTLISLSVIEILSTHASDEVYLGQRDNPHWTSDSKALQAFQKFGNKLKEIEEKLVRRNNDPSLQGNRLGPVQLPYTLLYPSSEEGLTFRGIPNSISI

hMAO-A = target: T4, hMAO-A (Homo sapiens, UniProt P21397); experiment: MAO-A inhibition, fluorometric method; type: biochemical
T4 sequence (P21397 1-527): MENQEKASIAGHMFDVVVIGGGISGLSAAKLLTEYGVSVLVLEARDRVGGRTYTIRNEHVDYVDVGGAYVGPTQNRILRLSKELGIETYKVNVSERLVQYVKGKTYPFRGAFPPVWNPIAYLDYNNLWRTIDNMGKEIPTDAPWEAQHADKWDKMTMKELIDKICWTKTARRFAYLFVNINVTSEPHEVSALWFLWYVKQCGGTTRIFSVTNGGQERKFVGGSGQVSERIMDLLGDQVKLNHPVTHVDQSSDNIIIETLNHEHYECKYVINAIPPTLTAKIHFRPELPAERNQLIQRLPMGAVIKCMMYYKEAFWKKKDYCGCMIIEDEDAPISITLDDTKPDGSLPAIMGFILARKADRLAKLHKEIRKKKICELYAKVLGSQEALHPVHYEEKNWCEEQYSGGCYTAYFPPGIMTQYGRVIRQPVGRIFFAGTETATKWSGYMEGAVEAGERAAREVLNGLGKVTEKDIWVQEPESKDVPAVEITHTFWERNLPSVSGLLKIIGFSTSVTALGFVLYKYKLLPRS

eqBChE = eqBChE (Equus caballus, UniProt P81908); experiment: BChE inhibition, modified Ellman's method; type: biochemical, Equine
eqBChE, sequence (P81908 whole entry): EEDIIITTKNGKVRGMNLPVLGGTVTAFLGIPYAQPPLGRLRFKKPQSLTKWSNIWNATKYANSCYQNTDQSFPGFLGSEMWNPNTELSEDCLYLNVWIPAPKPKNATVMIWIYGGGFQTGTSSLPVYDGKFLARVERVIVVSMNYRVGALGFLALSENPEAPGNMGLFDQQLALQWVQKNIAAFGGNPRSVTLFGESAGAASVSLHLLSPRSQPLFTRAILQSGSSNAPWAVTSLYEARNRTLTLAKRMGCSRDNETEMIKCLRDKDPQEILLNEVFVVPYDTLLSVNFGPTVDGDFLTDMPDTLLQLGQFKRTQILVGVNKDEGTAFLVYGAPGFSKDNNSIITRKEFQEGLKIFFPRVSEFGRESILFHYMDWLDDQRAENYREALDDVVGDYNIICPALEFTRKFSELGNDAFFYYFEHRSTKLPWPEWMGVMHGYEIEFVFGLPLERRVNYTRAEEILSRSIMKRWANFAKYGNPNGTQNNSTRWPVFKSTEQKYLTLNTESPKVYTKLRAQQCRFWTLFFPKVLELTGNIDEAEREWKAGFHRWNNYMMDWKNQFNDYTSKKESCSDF

[2] = In vivo acute toxicity study; conditions: doses ranging from 50 to 2000 mg kg^−1 body weight
[3] = test system: neuroblastoma SH-SY5Y cells; experiment: MTT assay for neurotoxicity; type: cell-based; conditions: 1, 10, 20, 40 and 80 μM, incubation for 48 hours

Compound | Prediction (PAMPA-BBB) (CNS+, CNS−) [1] | IC50 (COX-2) [µM] | IC50 (eeAChE) [µM] | SI (IC50 eqBChE/IC50 eeAChE) (eeAChE) | IC50 (hMAO-B) [µM] | SI (IC50 hMAO-A/IC50 hMAO-B) (hMAO-B) | IC50 (5-LOX) [µM] | IC50 (hMAO-A) [µM] | IC50 (eqBChE) [µM] | Acute toxicity outcome [2] | Papp at 20 h [1] [×10⁻⁶ cm/s] | Neurotoxicity (cell viability, MTT) [3] | Permeability (PAMPA-BBB) Pe(tested) ([1]; pH 7.4, 20 hours, room temperature) | IC50 (COX-2; read-out: IC50 (μM) ± SEM COX-2, NA = no activity found in tested concentration) [µM] | IC50 (eeAChE; read-out: IC50 (μM) ± SEM eeAChE) [µM] | IC50 (hMAO-B; read-out: IC50 (μM) ± SEM hMAO-B) [µM] | IC50 (5-LOX; read-out: IC50 (μM) ± SEM 5-LOX) [µM] | IC50 (hMAO-A; read-out: IC50 (μM) ± SEM hMAO-A) [µM] | IC50 (eqBChE; read-out: IC50 (μM) ± SEM eqBChE) [µM]
CCn1cc(C(=O)O)c(=O)c2cc(F)c(N3CCNC(C)C3)c(F)c21 (stereo not shown) [Lomefloxacin, reference compound] | CNS− (‘CNS−’ (prediction of low BBB permeation); Pe (10^−6 cm s^−1) < 1.78) |  |  |  |  |  |  |  |  |  |  |  |  |  |  |  |  |  | 
Sc1nnc(Cc2ccccc2Nc2c(Cl)cccc2Cl)n1-c1ccc(Cl)c(Cl)c1 [Compound 12, 5-(2-(2,6-dichlorophenylamino)benzyl)-4-(3,4 dichlorophenyl)-4H-1,2,4-triazole-3-thiol] |  | 0.69 ± 0.13 | 2.58 ± 0.41 | 21.8 | 13.1 ± 1.22 | 0.8 | 75.5 ± 1.57 | 11.3 ± 1.01 | 56.4 ± 1.28 |  |  |  |  |  |  |  |  |  | 
NS(=O)(=O)c1ccc(N2N=C(c3ccc(NC(=O)Cc4ccccc4Nc4c(Cl)cccc4Cl)cc3)CC2c2ccc(Cl)cc2)cc1 (stereo not shown) [Compound 39, N-{4-[5-(4-chlorophenyl)-1-(4-sulfamoylphenyl)-4,5-dihydro-1H-pyrazol-3-yl]phenyl}-2-{2-[(2,6-dichlorophenyl)amino]phenyl}acetamide] | CNS+ (‘CNS+’ (prediction of high BBB permeation); Pe (10^−6 cm s^−1) > 4.39) | 0.6 ± 0.03 | 0.03 ± 0.01 | 30.33 | 0.01 ± 0.001 | 61 | 0.98 ± 0.01 | 0.61 ± 0.08 | 0.91 ± 0.16 | all animals were found alive | 7.55 ± 0.14 | no neurotoxicity |  |  |  |  |  |  | 
COc1ccc(C(=O)CC2CC(=O)N(CCCSc3nnc(Cc4ccccc4Nc4c(Cl)cccc4Cl)n3-c3ccc(Cl)c(Cl)c3)C2=O)cc1 (stereo not shown) [Compound 31, 1-(3-((4-(3,4-Dichlorophenyl)-5-(2-((2,6-dichlorophenyl)amino)benzyl)-4H-1,2,4-triazol-3-yl)thio)propyl)-3-(2-(4-methoxyphenyl)-2-oxoethyl)pyrrolidine-2,5-dione] |  |  | 0.08 ± 0.01 | 601.2 | 0.024 ± 0.001 | 193 | 51.3 ± 1.37 | 4.63 ± 0.31 | 48.1 ± 1.51 | all animals were found alive |  |  |  |  |  |  |  |  | 
Cc1nnc2n1-c1ccc(Cl)cc1C(c1ccccc1)=NC2 [Alprazolam, reference compound] | CNS+ (‘CNS+’ (prediction of high BBB permeation); Pe (10^−6 cm s^−1) > 4.39) |  |  |  |  |  |  |  |  |  |  |  |  |  |  |  |  |  | 
N-(2-((5-(4-(4aH-Phenothiazin-10(10aH)-yl)butylthio)-4-(3,4-dichlorophenyl)-4H-1,2,4-triazol-3-yl)methyl)phenyl)-2,6-dichlorobenzenamine [Compound 33] | CNS+ (‘CNS+’ (prediction of high BBB permeation); Pe (10^−6 cm s^−1) > 4.39) |  |  | 117.8 |  | 65.7 |  |  |  | all animals were found alive |  | no neurotoxicity | 9.05 ± 0.20 10^−6 cm s^−1 | 23 ± 0.92 | 0.05 | 0.13 ± 0.01 | 9.11 ± 0.08 | 8.55 ± 0.26 | 5.89 ± 1
NS(=O)(=O)c1ccc(NCSc2nnc(Cc3ccccc3Nc3c(Cl)cccc3Cl)n2-c2ccc(Cl)c(Cl)c2)cc1 [Compound 15, 4-((5-(2-(2,6-dichlorophenylamino)benzyl)-4-(3,4-dichlorophenyl)-4H-1,2,4-triazol-3-ylthio)methylamino)benzenesulfonamide] | CNS+ (‘CNS+’ (prediction of high BBB permeation); Pe (10^−6 cm s^−1) > 4.39) | 0.16 ± 0.04 | 0.11 ± 0.01 | 27.2 | 0.89 ± 0.33 | 1.3 | 3.42 ± 0.21 | 1.21 ± 0.07 | 2.99 ± 0.33 | all animals were found alive | 6.36 ± 0.3 | low neurotoxicity |  |  |  |  |  |  | 
O=C(CC1CC(=O)N(CCCSc2nnc(Cc3ccccc3Nc3c(Cl)cccc3Cl)n2-c2ccc(Cl)c(Cl)c2)C1=O)c1ccccc1 (stereo not shown) [Compound 32, 1-(3-((4-(3,4-Dichlorophenyl)-5-(2-((2,6-dichlorophenyl)amino)benzyl)-4H-1,2,4-triazol-3-yl)thio)propyl)-3-(2-oxo-2-phenylethyl)pyrrolidine-2,5-dione] |  |  | 0.39 ± 0.08 | 8.7 | 0.106 ± 0.004 | 61.1 | 48.3 ± 1.42 | 6.48 ± 0.39 | 3.39 ± 0.83 |  |  |  |  |  |  |  |  |  | 
